Test system: récepteurs des benzodiazépines
Assay: In vivo measurement of binding to benzodiazepine receptors, method of Goeders and Kuhar
Text: La mesure in vivo de la liaison aux récepteurs des benzodiazépines a été effectuée selon la méthode décrite par Goeders N.E. et Kuhar M.J. Life, Sciences (1985) 37, 345. TABLEAU II

SMILES | liaison in vivo DE 50 mg/kg IP
CN1Cc2c(-c3cc(C4CC4)no3)ncn2-c2ccccc2C1=O [Exemple 5, 3-(3-cyclopropylisoxazol-5-yl) 5,6-dihydro 5-méthyl 6-oxo-4H-imidazo [1,5-a] [1,4]-benzodiazépine] | 2,0 mg/kg
Cc1cc(-c2ncn3c2CN(C)C(=O)c2ccccc2-3)on1 [Exemple 7, 5,6-dihydro 5-méthyl 6-oxo 3-(3-méthylisoxazol-5-yl) 4H-imidazo [1,5-a] [1,4]-benzodiazépine] | 0,62 mg/kg
CCc1cc(-c2ncn3c2CN(C)C(=O)c2ccccc2-3)on1 [Exemple 8, 5,6-dihydro 5-méthyl 6-oxo 3-(3-éthylisoxazol-5-yl) 4H-imidazo [1,5-a] [1,4]-benzodiazépine] | > 3,0 mg/kg

Reference: EP0423032A2, “Process for the preparation of isoxazolyl and isothiazolyl imidazobenzodiazepines, new derivatives thus obtained, their use as medicaments and compositions containing them” (ROUSSEL-UCLAF, priority 1989, dated 1991)
